Substitutions are numbered along the chain they refer to.
Columns and labels:
wild type sGC = biological target: T1, wild type sGC (Homo sapiens, UniProt Q02108+Q02153); test: Assay of sGC activity ([32P]cGMP formation from GTP), purified wild type enzyme; type: biochemical
T1 construct: made in house; host or cells: Sf9 cells (baculovirus)
T1 sequence (Q02153 1-619): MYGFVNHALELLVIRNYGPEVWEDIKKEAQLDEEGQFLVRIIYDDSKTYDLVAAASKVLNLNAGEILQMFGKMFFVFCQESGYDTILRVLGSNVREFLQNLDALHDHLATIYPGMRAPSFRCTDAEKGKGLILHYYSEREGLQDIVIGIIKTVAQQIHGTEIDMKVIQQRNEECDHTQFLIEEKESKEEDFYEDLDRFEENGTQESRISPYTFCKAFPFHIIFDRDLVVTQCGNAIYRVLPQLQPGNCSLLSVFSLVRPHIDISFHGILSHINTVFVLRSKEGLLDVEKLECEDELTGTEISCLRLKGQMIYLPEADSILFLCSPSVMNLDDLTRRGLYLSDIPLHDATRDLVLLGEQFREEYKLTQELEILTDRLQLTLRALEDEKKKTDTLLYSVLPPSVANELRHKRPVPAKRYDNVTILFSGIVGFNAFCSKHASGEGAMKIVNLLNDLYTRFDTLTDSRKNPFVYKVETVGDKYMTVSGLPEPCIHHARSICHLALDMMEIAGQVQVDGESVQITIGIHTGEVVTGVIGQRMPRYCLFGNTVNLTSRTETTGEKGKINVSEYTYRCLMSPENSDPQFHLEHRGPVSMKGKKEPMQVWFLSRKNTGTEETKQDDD
T1 sequence (Q02108 1-690): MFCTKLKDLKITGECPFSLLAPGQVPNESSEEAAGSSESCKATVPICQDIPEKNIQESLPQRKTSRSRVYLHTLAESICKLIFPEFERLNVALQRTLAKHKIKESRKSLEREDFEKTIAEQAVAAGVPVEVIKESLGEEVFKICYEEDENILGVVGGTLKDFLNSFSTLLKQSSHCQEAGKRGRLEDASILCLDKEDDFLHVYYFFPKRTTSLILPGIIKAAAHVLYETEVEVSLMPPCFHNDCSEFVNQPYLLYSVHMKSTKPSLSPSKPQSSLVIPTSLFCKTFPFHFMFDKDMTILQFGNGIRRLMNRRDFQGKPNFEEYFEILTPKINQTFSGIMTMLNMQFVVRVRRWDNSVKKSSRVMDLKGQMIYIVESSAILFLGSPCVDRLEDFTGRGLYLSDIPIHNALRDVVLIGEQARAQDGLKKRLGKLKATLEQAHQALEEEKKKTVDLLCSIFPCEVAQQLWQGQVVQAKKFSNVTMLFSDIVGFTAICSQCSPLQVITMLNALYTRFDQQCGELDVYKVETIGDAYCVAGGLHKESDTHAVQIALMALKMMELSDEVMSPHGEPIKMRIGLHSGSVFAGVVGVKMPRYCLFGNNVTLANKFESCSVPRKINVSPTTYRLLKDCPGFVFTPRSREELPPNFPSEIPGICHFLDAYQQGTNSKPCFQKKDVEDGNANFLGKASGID
Experimental: (§1) sGC Expression and Purification. […] Purification of sGC was performed as described earlier (26), the disclosure of which is hereby incorporated herein by reference, with the following modifications. Cells were harvested 72 h post infection, resuspended in loading buffer (25 mM triethanolamine, pH 7.5. 10 glycerol, 4 mM MgCl2 and 1 mM phenylmethylsulfonyl fluoride, and 5 μg/ml each of pepstatin A, leupeptin, aprotinin, and chymostatin,) and lysed by sonication. The lysate was subjected to 100,000×g centrifugation for 1 h. The high-speed supernate was loaded on a 60 ml DEAE-Sepharose (Amersham Pharmacia Biotech) column and washed with 60 ml of loading buffer without protease inhibitors. The proteins were eluted with loading buffer containing 250 mM NaCl and the eluate was directly loaded on a 30 ml His-Bind resin (Novagen) column. The column was washed with 60 ml of loading buffer followed by 60 ml of loading buffer with 45 mM imidazole. The enzyme was eluted with 175 mM imidazole and 2 ml fractions were collected. […] The enzyme at this stage was approximately 90–95% pure. To remove imidazole, sGC-containing fractions were diluted 3 fold with 25 mM triethanolamine pH 7.5, loaded on a 2 ml Hi-Trap DEAE-Sepharose column (Amersham Pharmacia Biotech), washed with 10 ml of loading buffer and eluted with 25 mM triethanolamine pH 7.5, 250 mM NaCl, 10 glycerol, 4 mM MgCl2, 0.5 mM EDTA, 0.5 mM EGTA. The enzyme obtained at this stage (95% or greater purity) was used for experiments.
(§2) Assay of sGC Activity. Enzyme activity was assayed by formation of [^32P] cGMP from α[^32P]GTP at 37° C. in a final volume of 100 μl. Incubation medium contained 50 mM triethanolamine-HCl buffer (pH 7.4), 1 mM 3-isobutyl-1-methylxanthine (IBMX), 1 mg/ml BSA. 1 mM cGMP, 3 mM MgCl2, 0.05 mg/ml creatine phosphokinase, 5 mM creatine phosphate, 0.1 mM EGTA. 200 μM GTP (about 10.000 cpm/pmol). The reaction was started by addition of the substrate (GTP) with or without activators. 1 mM DTT, GSH or cysteine were added to the incubation medium before the addition of GTP. Thiol concentration varied in some experiments as indicated. Samples containing 0.2 μg sGC were incubated for 10 or 15 min and the reaction was stopped by addition of 500 μl 150 mM zinc acetate and 500 μl 180 mM sodium carbonate. The pellet of zinc carbonate containing most of the unreacted GTP was removed by centrifugation and the supernatant fractions were loaded onto columns filled with 1 g of neutral alumina. Columns were then eluted with 10 ml 0.1 M Tris-HCl buffer (pH 7.5) and Cherenkov radiation in flow through plus eluate was counted in a LKB liquid scintillation spectrometer. Samples incubated in the absence of sGC were used as a negative control. The concentration of dimethylsulfoxide (DMSO) used as a vehicle for YC-1 was not higher than 0.1 and had no effect on sGC activity as determined previously.

αβ^Cys105 mutant sGC = biological target: T2, αβ^Cys105 mutant sGC (Homo sapiens, UniProt Q02108+Q02153, H105C); test: Assay of sGC activity ([32P]cGMP formation from GTP), purified αβ^Cys105 mutant enzyme; type: biochemical
T2 construct: made in house; host or cells: Sf9 cells (baculovirus)
T2 sequence (Q02153 1-619 H105C): T1 sequence (Q02153 1-619) with H105C
T2 sequence (Q02108 1-690): T1 sequence (Q02108 1-690)
Experimental: as §1, §2

[1] = 2 μM BAY-41-2272, data not shown

With CCCCC/C=C\C/C=C\C/C=C\C/C=C\CCCC(=O)O [arachidonic acid, reference compound] the “maximum fold activation by arachidonic acid” value (wild type sGC; not affected by DTT, data not shown) was 3 fold, the “activity with arachidonic acid” value (αβ^Cys105 mutant sGC; 1 mM arachidonic acid, in the presence of DTT) was 0.5 µmol/min/mg and the “fold stimulation by arachidonic acid” value (αβ^Cys105 mutant sGC; 1 mM, in the presence of DTT) was 3.5 fold. The “stimulation by arachidonic acid” value (αβ^Cys105 mutant sGC; absence of DTT) was “only modestly stimulated”.

NCCSSCCN [cystamine, reference compound] was tested, and the “effect of cystamine on activity in the presence of DTT” value (wild type sGC; 1 mM cystamine, 1 mM DTT) was “reversed”, the “effect of cystamine on activity” value (wild type sGC; 1 mM cystamine, no DTT) was “inhibited” and the “sensitivity to cystamine in the presence of DTT” value (αβ^Cys105 mutant sGC; 1 mM cystamine, 1 mM DTT) was “less sensitive”.

In the case of N[C@@H](CCC(=O)N[C@@H](CS)C(=O)NCC(=O)O)C(=O)O [GSH, glutathione, reference compound], the “specific activity in the presence of GSH” value (αβ^Cys105 mutant sGC; GSH as reducing agent, no DTT) is reported as “up to 2 μmol/min/mg” and the “effect of GSH on activity” value (αβ^Cys105 mutant sGC; GSH concentration above 1 mM) is reported as “slight stimulatory effect”.

O[C@@H](CS)[C@@H](O)CS [DTT, reference compound] was tested, and the “change of activity without DTT” value (wild type sGC; 1 mM DTT vs no thiols) was “did not change significantly”, the “concentration at which inhibitory effect is prominent” value (αβ^Cys105 mutant sGC; concentration-response, FIG. 1B) was “higher than 1 mM” and the “fold decrease in enzymatic activity” value (αβ^Cys105 mutant sGC; millimolar concentrations of DTT) was 5–7 fold.

Nc1nc(-c2nn(Cc3ccccc3F)c3ncccc23)ncc1C1CC1 [BAY-41-2272, 5-cyclopropyl-2-[1-(2-fluoro-benzyl)-1H-pyrazolo[3,4-b]pyridin-3-yl]-pyrimidin-4-ylamine, reference compound] was tested, and the “effect compared with 100 μM YC-1” value (wild type sGC; [1]) was “Identical effects” and the “effect compared with 100 μM YC-1” value (αβ^Cys105 mutant sGC; [1]) was “Identical effects”.

For C=CC1=C(C)c2cc3[nH]c(cc4nc(cc5[nH]c(cc1n2)c(C)c5CCC(=O)O)C(CCC(=O)O)=C4C)c(C)c3C=C [PPIX, protoporphyrin IX, reference compound], the “stimulation of basal activity by PPIX” value (αβ^Cys105 mutant sGC; 1 μM PPIX, absence of DTT) was 80.

In the case of OCc1ccc(-c2nn(Cc3ccccc3)c3ccccc23)o1 [YC-1, 3-(5′-Hydroxymethyl-2′furyl)-1-benzyl-indazole, reference compound], the “fold stimulation by YC-1” value (wild type sGC; 100 μM YC-1) is reported as 11 fold, the “specific activity with YC-1” value (wild type sGC; 100 μM YC-1) is reported as 0.15 µmol/min/mg and the “increase of activity with YC-1 activation” value (αβ^Cys105 mutant sGC; 100 μM YC-1, DTT-free conditions) is reported as 30. The “extent of activation by YC-1 after heme reconstitution” value (αβ^Cys105 mutant sGC; 100 μM YC-1, DTT-treated heme-reconstituted enzyme) was “did not change the extent of activation” and the “fold activation by YC-1” value (αβ^Cys105 mutant sGC; 100 μM YC-1, in the presence of DTT) was “up to 3 fold”.

Source: patent publication US7214519B2, “Screening method for identifying heme independent modulators of soluble guanylyl cyclase (sGC) activity using αβCys105 mutant sGC” (Board of Regents of the University of Texas System, priority 2003, dated 2007)
